In brackets after ≈: the same amount, converted by molar mass.
What was measured:
Assay in all cases: In vitro MIC, 2010 surveillance isolates
E. coli ESBL− = type: cell-based, Escherichia coli
K. pneumoniae ESBL− = type: cell-based, Klebsiella pneumoniae
K. pneumoniae ESBL+ = type: cell-based, Klebsiella pneumoniae
K. oxytoca = type: cell-based
E. cloacae CeftazS = type: cell-based
E. cloacae CeftazR = type: cell-based
Enterobacter spp = type: cell-based
A. baumanii = type: cell-based
Acinetobacter spp = type: cell-based; settings: Asia/Pac; N=9

## CN(C)c1cc(NC(=O)CNC(C)(C)C)c(O)c2c1C[C@H]1C[C@H]3[C@H](N(C)C)C(O)=C(C(N)=O)C(=O)[C@@]3(O)C(O)=C1C2=O [Tigecycline]
E. coli ESBL−; Asia/Pac, Eucast breakpoints
  % R (resistance): 0%
E. coli ESBL−; Asia/Pac, N=282
  MIC90: 0.25 µg/mL (≈ 0.427 µM)
E. coli ESBL−; Europe, Eucast breakpoints
  % R (resistance): 0%
E. coli ESBL−; Europe, N=1533
  MIC90: 0.25 µg/mL (≈ 0.427 µM)
E. coli ESBL−; L. Amer, CLSI breakpoints
  % R (resistance): 0%
E. coli ESBL−; L. Amer, N=389
  MIC90: 0.25 µg/mL (≈ 0.427 µM)
E. coli ESBL−; N America, CLSI breakpoints
  % R (resistance): 0%
E. coli ESBL−; N America, N=1172
  MIC90: 0.25 µg/mL (≈ 0.427 µM)
K. pneumoniae ESBL−; Asia/Pac, Eucast breakpoints
  % R (resistance): 1.1%
K. pneumoniae ESBL−; Asia/Pac, N=189
  MIC90: 0.5 µg/mL (≈ 0.854 µM)
K. pneumoniae ESBL−; Europe, Eucast breakpoints
  % R (resistance): 0.3%
K. pneumoniae ESBL−; Europe, N=361
  MIC90: 0.5 µg/mL (≈ 0.854 µM)
K. pneumoniae ESBL−; L. Amer, CLSI breakpoints
  % R (resistance): 0%
K. pneumoniae ESBL−; L. Amer, N=160
  MIC90: 0.5 µg/mL (≈ 0.854 µM)
K. pneumoniae ESBL−; N America, CLSI breakpoints
  % R (resistance): 0%
K. pneumoniae ESBL−; N America, N=671
  MIC90: 0.5 µg/mL (≈ 0.854 µM)
K. pneumoniae ESBL+; Asia/Pac, Eucast breakpoints
  % R (resistance): 3.2%
K. pneumoniae ESBL+; Asia/Pac, N=124
  MIC90: 1 µg/mL (≈ 1.71 µM)
K. pneumoniae ESBL+; Europe, Eucast breakpoints
  % R (resistance): 0.7%
K. pneumoniae ESBL+; Europe, N=151
  MIC90: 1 µg/mL (≈ 1.71 µM)
K. pneumoniae ESBL+; L. Amer, CLSI breakpoints
  % R (resistance): 0%
K. pneumoniae ESBL+; L. Amer, N=209
  MIC90: 2 µg/mL (≈ 3.41 µM)
K. pneumoniae ESBL+; N America, CLSI breakpoints
  % R (resistance): 0%
K. pneumoniae ESBL+; N America, N=108
  MIC90: 2 µg/mL (≈ 3.41 µM)
K. oxytoca; Asia/Pac, Eucast breakpoints
  % R (resistance): 5.9%
K. oxytoca; Asia/Pac, N=17
  MIC90: 0.5 µg/mL (≈ 0.854 µM)
K. oxytoca; Europe, Eucast breakpoints
  % R (resistance): 0%
K. oxytoca; Europe, N=158
  MIC90: 0.5 µg/mL (≈ 0.854 µM)
K. oxytoca; L. Amer, CLSI breakpoints
  % R (resistance): 0%
K. oxytoca; L. Amer, N=25
  MIC90: 1 µg/mL (≈ 1.71 µM)
K. oxytoca; N America, CLSI breakpoints
  % R (resistance): 0%
K. oxytoca; N America, N=177
  MIC90: 0.5 µg/mL (≈ 0.854 µM)
E. cloacae CeftazS; Asia/Pac, Eucast breakpoints
  % R (resistance): 2%
E. cloacae CeftazS; Asia/Pac, N=100
  MIC90: 0.5 µg/mL (≈ 0.854 µM)
E. cloacae CeftazS; Europe, Eucast breakpoints
  % R (resistance): 0%
E. cloacae CeftazS; Europe, N=183
  MIC90: 0.5 µg/mL (≈ 0.854 µM)
E. cloacae CeftazS; L. Amer, CLSI breakpoints
  % R (resistance): 0%
E. cloacae CeftazS; L. Amer, N=57
  MIC90: 1 µg/mL (≈ 1.71 µM)
E. cloacae CeftazS; N America, CLSI breakpoints
  % R (resistance): 0%
E. cloacae CeftazS; N America, N=210
  MIC90: 0.5 µg/mL (≈ 0.854 µM)
E. cloacae CeftazR; Asia/Pac, Eucast breakpoints
  % R (resistance): 1.6%
E. cloacae CeftazR; Asia/Pac, N=63
  MIC90: 0.5 µg/mL (≈ 0.854 µM)
E. cloacae CeftazR; Europe, Eucast breakpoints
  % R (resistance): 0%
E. cloacae CeftazR; Europe, N=72
  MIC90: 0.5 µg/mL (≈ 0.854 µM)
E. cloacae CeftazR; L. Amer, CLSI breakpoints
  % R (resistance): 0%
E. cloacae CeftazR; L. Amer, N=42
  MIC90: 1 µg/mL (≈ 1.71 µM)
E. cloacae CeftazR; N America, CLSI breakpoints
  % R (resistance): 0%
E. cloacae CeftazR; N America, N=77
  MIC90: 2 µg/mL (≈ 3.41 µM)
Enterobacter spp; Asia/Pac, Eucast breakpoints
  % R (resistance): 3.8%
Enterobacter spp; Asia/Pac, N=52
  MIC90: 1 µg/mL (≈ 1.71 µM)
Enterobacter spp; Europe, Eucast breakpoints
  % R (resistance): 1.2%
Enterobacter spp; Europe, N=82
  MIC90: 1 µg/mL (≈ 1.71 µM)
Enterobacter spp; L. Amer, CLSI breakpoints
  % R (resistance): 0%
Enterobacter spp; L. Amer, N=42
  MIC90: 0.5 µg/mL (≈ 0.854 µM)
Enterobacter spp; N America, CLSI breakpoints
  % R (resistance): 0%
Enterobacter spp; N America, N=101
  MIC90: 0.5 µg/mL (≈ 0.854 µM)
A. baumanii; Asia/Pac, N=275
  MIC90: 1 µg/mL (≈ 1.71 µM)
A. baumanii; Europe, N=145
  MIC90: 2 µg/mL (≈ 3.41 µM)
A. baumanii; L. Amer, N=275
  MIC90: 2 µg/mL (≈ 3.41 µM)
A. baumanii; N America, N=154
  MIC90: 2 µg/mL (≈ 3.41 µM)
Acinetobacter spp
  range of MICs (N <10, shown instead of MIC90): ≤0.03-1

From patent US10238670B2, “9-aminomethyl minocycline compounds and methods of use thereof in urinary tract infection (UTI) treatment” (Paratek Pharmaceuticals, Inc., priority 2016, dated 2019)
